Assay [1] has as its target T1, Recombinant human MetAP2 (Homo sapiens, UniProt P50579).
T1 construct: purchased Bio-Techne/R&D systems
Nature of the assay: MetAP2 fluorescence assay. Format: biochemical. To be noted: recombinant human MetAP2, H-Met-Gly-Pro-AMC substrate. The procedure:
MetAP2 Fluorescence Assay
Recombinant human MetAP2 (Bio-Techne/R&D systems) was diluted to 10 μg/mL in the assay buffer (50 mM HEPES, 0.1 mM CoCl2, 100 mM NaCl, pH 7.5). The substrate, H-Met-Gly-Pro-AMC (Bio-Techne/R&D systems), was diluted to 500 μM with 2 μg/mL of the coupling enzyme, recombinant human dipeptidyl peptidase-4 (Bio-Techne/R&D systems), in assay buffer. 50 μL of 10 μg/mL recombinant human METAP2 were loaded into a flat-bottom black 96-well plate (Greiner Bio), and the reaction was initiated by adding 50 μL of the substrate/dipeptidyl peptidase-4 mixture. The reaction mixture was incubated at room temperature for 10 minutes, and the fluorescence was measured for 5 minutes at excitation and emission wavelengths of 380 nm and 460 nm, respectively, in kinetic mode. For IC50determination, 0.5 μL inhibitor solution was added to the reaction mixture. The reaction rates were used to calculate IC50with KaleidaGraph.

Assay [2] has as its system G. lamblia GS. Nature of the assay: Trophozoite viability IC50 determination, Giardia assay (ATPLite). Format: cell-based. To be noted: Giardia duodenalis, read-out: Cell viability values Mean IC50 (nM) G. lamblia GS. The procedure: (§1) Giardia cultures: Trophozoites of G. lamblia isolates WB and GS were grown anaerobically in borosilicate glass screw-cap culture tubes (Fisher Scientific) at pH 7.0 in modified TYI-S-33 medium. The medium was supplemented with 10% heat-inactivated bovine serum (Sigma-Aldrich) and 0.05% bovine bile (Sigma-Aldrich). To attain low-oxygen-tension conditions, the tubes were filled to 85 to 90% of their total volume capacity and incubated without shaking at 37° C. Subcultures (2×10^5 trophozoites per tube) were made three times a week. Detachment of trophozoites for inoculation was achieved by chilling the cultures on ice for 20 min. Culturing and detachment of Metronidazole-resistant G. lamblia Assemblage A 713M3 and assemblage B 1279-M1 trophozoites followed the same protocol, except that the growth medium was supplemented with metronidazole gradually increasing the concentration to 10 μM. Amebae cultures: E. histolytica strain HM1:IMSS trophozoites were grown at 37° C. in TYI-S-33 medium supplemented with penicillin (100 U/mL) and streptomycin sulfate (100 μg/mL). Trophozoites were grown anaerobically in borosilicate tubes and subcultures were made 1-2 times a week. Trophozoites were detached for inoculation by chilling the cultures on ice for 20 minutes.
(§2) Trophozoite viability IC50determination
(§3) Giardia assays: 10 μL giardia trophozoites in growth medium were plated at a density of 10,000 cells/well in sterile 96-well black clear bottom assay plates. Fumagillin and fumagillol derivatives were 1:3 serially diluted from a 1 μM DMSO stock solution and then 100 μL/well were transferred in duplicate to the assay wells. Metronidazole (control) was 1:3 serially diluted in growth medium from a 100 μM stock solution in DMSO. The assay plates were placed in a BD GasPak™ EZ Container System (BD Diagnostics) to create an anaerobic growth environment. The sealed containers were incubated at 37° C. for 72 hr. Following incubation, 70 μL/well of the ATPLite reagent (PerkinElmer) was added to the assay plates for one-step lysis and ATP level detection. The luminescent signals of the assay plates were measured on an EnSpire 2300 plate reader (PerkinElmer). Concentration response titration points for each compound were fitted to a 4-parameters logistic nonlinear regression model using KaleidaGraph, yielding the IC50value and standard error (SE).
(ATP-based viability assays read luminescence as a measure of living cells.)

The subject of assay [3] is G. lamblia WB. The assay is described as above. The class given is cell-based. Conditions: Giardia duodenalis, read-out: Cell viability values Mean IC50 (nM) G. lamblia WB. The procedure:
as §1, §2, §3

Assay [4] has as its system E. histolytica HM1: IMSS. As to the kind of experiment: Trophozoite viability IC50 determination, Amebae assay (ATPLite). The class given is cell-based. Conditions: Entamoeba histolytica, read-out: Cell viability values Mean IC50 (nM) E. histolytica HM1: IMSS. The method, then: as §1, §2, §3
Amebae assays: The protocol is identical to that described above except that the trophozoites were plated at a density of 5000 cells/well because of their larger size.

[5] abbreviates: trophozoites, 72 hr, anaerobic, ATP level.

Each structure is given as a SMILES string. Like-named read-outs stand apart in the source and are kept apart here.

T1 sequence (P50579 whole entry): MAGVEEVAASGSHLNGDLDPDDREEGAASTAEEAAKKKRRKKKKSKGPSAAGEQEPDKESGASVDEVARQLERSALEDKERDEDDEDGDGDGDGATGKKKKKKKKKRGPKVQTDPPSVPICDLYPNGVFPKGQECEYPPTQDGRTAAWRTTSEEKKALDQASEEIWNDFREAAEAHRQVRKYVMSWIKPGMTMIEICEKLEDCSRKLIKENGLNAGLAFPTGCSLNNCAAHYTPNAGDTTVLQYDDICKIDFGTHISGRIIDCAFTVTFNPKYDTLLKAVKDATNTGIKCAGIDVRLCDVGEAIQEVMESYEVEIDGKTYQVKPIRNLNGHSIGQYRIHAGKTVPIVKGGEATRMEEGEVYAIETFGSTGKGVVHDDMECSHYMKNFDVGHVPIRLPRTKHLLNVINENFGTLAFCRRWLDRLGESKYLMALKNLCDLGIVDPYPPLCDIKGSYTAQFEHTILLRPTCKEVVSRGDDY

Consider `CO[C@@H]1[C@H](OC(=O)NCc2ccc(B(O)O)o2)CC[C@]2(CO2)[C@H]1[C@@]1(C)O[C@@H]1CC=C(C)C` [No 55], for which the IC50 was under 10 nM in assay [1], 101 to 1000 nM in assay [2] (72 h), over 1000 nM in assay [3] (72 h) and over 1000 nM in assay [4] (72 h).

For the molecule `CO[C@@H]1[C@H](OC(=O)N2CCOc3c(B(O)O)cccc32)CC[C@]2(CO2)[C@H]1[C@@]1(C)O[C@@H]1CC=C(C)C` [No 51], the IC50 was under 10 nM in assay [1], under 10 nM in assay [2] (72 h), 101 to 1000 nM in assay [3] (72 h) and 101 to 1000 nM in assay [4] (72 h).

With `CO[C@@H]1[C@H](OC(=O)Nc2ccc(Cl)c(B(O)O)c2F)CC[C@]2(CO2)[C@H]1[C@@]1(C)O[C@@H]1CC=C(C)C` [No 64], the IC50 in assay [1] is under 10 nM; in assay [2] (setting [5]) it was 101 to 1000 nM; in assay [3] (setting [5]), over 1000 nM; in assay [4] (setting [5]) it was over 1000 nM.

Turning to `CO[C@@H]1[C@H](OC(=O)Nc2ccc3sc(B(O)O)cc3c2)CC[C@]2(CO2)[C@H]1[C@@]1(C)O[C@@H]1CC=C(C)C` [No 38], the IC50 in assay [1] is under 10 nM; in assay [2] (72 h) it was over 1000 nM; in assay [3] (72 h), over 1000 nM; in assay [4] (72 h), over 1000 nM.

`CO[C@@H]1[C@H](OC(=O)Nc2ccc3c(c2)B(O)OCC3)CC[C@]2(CO2)[C@H]1[C@@]1(C)O[C@@H]1CC=C(C)C` [No 14]: the IC50 in assay [1] is under 10 nM; in assay [2] (72 h) it was 10.1 to 100 nM; in assay [3] (72 h) it was 101 to 1000 nM; in assay [4] (72 h) it was 101 to 1000 nM.

On to `CO[C@@H]1[C@H](OC(=O)Nc2cc(C(=O)O)ccc2B(O)O)CC[C@]2(CO2)[C@H]1[C@@]1(C)O[C@@H]1CC=C(C)C` [No 22], for which the IC50 in assay [1] is under 10 nM; in assay [2] (setting [5]), 101 to 1000 nM; in assay [3] (setting [5]) it was 101 to 1000 nM; in assay [4] (setting [5]), 101 to 1000 nM.

In the case of `CO[C@@H]1[C@H](OC(=O)NCc2c(F)cc(B(O)O)cc2F)CC[C@]2(CO2)[C@H]1[C@@]1(C)O[C@@H]1CC=C(C)C` [No 43], the IC50 in assay [1] was under 10 nM; in assay [2] (72 h), 101 to 1000 nM; in assay [3] (72 h) it was over 1000 nM; in assay [4] (72 h), over 1000 nM.

With `CO[C@@H]1[C@H](OC(=O)Nc2cccc(B(O)O)c2)CC[C@]2(CO2)[C@H]1[C@@]1(C)O[C@@H]1CC=C(C)C` [No 18], the IC50 in assay [1] is under 10 nM; in assay [2] (72 h), 10.1 to 100 nM; in assay [3] (72 h), 101 to 1000 nM; in assay [4] (72 h), 101 to 1000 nM.

As to `CO[C@@H]1[C@H](OC(=O)Nc2ccc(B(O)O)c(F)c2)CC[C@]2(CO2)[C@H]1[C@@]1(C)O[C@@H]1CC=C(C)C` [No 65], the IC50 in assay [1] was under 10 nM; in assay [2] (72 h), under 10 nM; in assay [3] (72 h), 101 to 1000 nM; in assay [4] (72 h) it was over 1000 nM.

As to `CO[C@@H]1[C@H](OC(=O)NCCCB(O)O)CC[C@]2(CO2)[C@H]1[C@@]1(C)O[C@@H]1CC=C(C)C` [No 59], the IC50 in assay [1] was under 10 nM; in assay [2] (72 h) it was over 1000 nM; in assay [3] (72 h) it was over 1000 nM; in assay [4] (72 h), over 1000 nM.

As to `CO[C@@H]1[C@H](OC(=O)NCc2cc(F)ccc2B(O)O)CC[C@]2(CO2)[C@H]1[C@@]1(C)O[C@@H]1CC=C(C)C` [No 31], the IC50 was under 10 nM in assay [1], 101 to 1000 nM in assay [2] (72 h), 101 to 1000 nM in assay [3] (72 h) and over 1000 nM in assay [4] (72 h).

For `CO[C@@H]1[C@H](OC(=O)N2CCC(B(O)O)CC2)CC[C@]2(CO2)[C@H]1[C@@]1(C)O[C@@H]1CC=C(C)C` [No 52], the IC50 in assay [1] was under 10 nM; in assay [2] (72 h), 10.1 to 100 nM; in assay [3] (72 h), 101 to 1000 nM; in assay [4] (72 h) it was over 1000 nM.

Take `CO[C@@H]1[C@H](OC(=O)N(C)c2ccc(B(O)O)cc2)CC[C@]2(CO2)[C@H]1[C@@]1(C)O[C@@H]1CC=C(C)C` [No 20]: the IC50 was under 10 nM in assay [1], 101 to 1000 nM in assay [2] (setting [5]), 101 to 1000 nM in assay [3] (setting [5]) and 101 to 1000 nM in assay [4] (setting [5]).

As to `CO[C@@H]1[C@H](OC(=O)Nc2c(B(O)O)ccnc2Cl)CC[C@]2(CO2)[C@H]1[C@@]1(C)O[C@@H]1CC=C(C)C` [No 47], the IC50 is under 10 nM in assay [1], 101 to 1000 nM in assay [2] (72 h), over 1000 nM in assay [3] (72 h) and over 1000 nM in assay [4] (72 h).

Broadly, the IC50 is the concentration that gives 50% inhibition.

The values are drawn from patent US20260166046A1, “Inhibitors of methionine aminopeptidase-2 and methods of preparation and uses thereof” (Primetime Life Sciences LLC, priority 2022, published 2026).
